Reference: patent US8242275B2, “Bicyclic pyrazole compounds as antibacterial agents” (Janssen Pharmaceutica NV, priority 2005, dated 2012)
Values after ≈ are worked out from the molar mass of the structure shown. Like-named read-outs stand apart in the source and are kept apart here.

Assays:
[1] = tested on: E. coli KL-16 (GSC strain 4245); assay: In vitro antibacterial activity (MIC assay), broth microdilution; format: cell-based; settings: Escherichia coli
Outline: (§1)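 Bacteria at roughly 5×10^5 CFU/mL final were grown 16–24 h at 35° C in wells holding 2-fold serial dilutions (11 points) of compound prepared in 100% DMSO, following NCCLS M7-A5. MIC, in μg/mL, is the concentration that stops visible growth relative to untreated wells.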

[2] = tested on: S. aureus ATCC13709; assay: as above; format: cell-based; settings: Staphylococcus aureus, ATCC13709; read-out: S. aureus ATCC13709 MIC
Outline: as §1

[3] = tested on: S. pneumoniae ATCC49619; assay: as above; format: cell-based; settings: Streptococcus pneumoniae, ATCC49619; read-out: S. pneumoniae ATCC49619 MIC
Outline: as §1

[4] = target: T1, E. coli DNA gyrase (Escherichia coli, UniProt P0AES4+P0AES6); assay: DNA gyrase inhibition assay (supercoiling); format: biochemical; settings: E. coli DNA gyrase supercoiling, visual inspection of gels; read-out: DNA Gyrase IC50 (converted)
T1 construct: purchased John Innes Enterprises Ltd. (John Innes Centre, UK)
Outline: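 Agarose-gel (1.0%, ethidium-stained) readout of supercoiled versus relaxed pBR322 after 30 min at 37° C. Each reaction held 250 ng DNA, 0.2 unit enzyme, 1 mM ATP, 4 mM MgCl2, 24 mM KCl in 35 mM Tris-HCl pH 7.5, and compound at 0.5% DMSO final.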

[5] = target: T2, E. coli topoisomerase IV (Escherichia coli, UniProt P0AFI2+P20083); assay: Topoisomerase IV inhibition assay (relaxation); format: biochemical; settings: E. coli topoisomerase IV relaxation, visual inspection of gels; read-out: Topoisomerase IV IC50 (converted)
T2 construct: purchased John Innes Enterprises Ltd. (John Innes Centre, UK)
Method: Inhibition of the relaxation activity of E. coli topoisomerase IV was determined using enzyme, buffers and substrates received from John Innes Enterprises Ltd. (John Innes Centre, UK). The reactions were performed according to the manufacturer's directions, with the following modifications.
DNA relaxation reactions were carried out in a total reaction volume of 20 μL, containing 300 ng of supercoiled pBR322, 40 mM HEPES-KOH (pH 7.6), 100 mM potassium glutamate, 10 mM Mg(OAc)2, 10 mM DTT, 4 μg/mL tRNA, 2 mM ATP, and 50 μg/mL BSA. Compounds, diluted in 10% DMSO, were added to the reaction mixture to reach a final concentration of 0.5% DMSO. Enzyme was diluted to 0.45 unit/μL in a solution of 40 mM HEPES-KOH (pH 7.6), 150 mM potassium glutamate, 1 mM DTT, 1 mM EDTA, and 40% glycerol. Diluted enzyme (0.9 unit) was added to each reaction.
The reactions were incubated at 37° C. for 45 min. The reactions were then cooled to 0° C. followed by addition of 3 μL of 40% glycerol, 100 mM Tris-HCl (pH 7.5), 50 mM EDTA, 0.5% SDS and 0.1% bromophenol blue. Samples were separated on 1.0% agarose gels. Gels were stained with Ethidium bromide and photographed with a Stratagene Eagle Eye II.

[6] = tested on: MSSA ATCC 29213; assay: Resistant strains assay (broth microdilution MIC); format: cell-based; settings: Staphylococcus aureus, read-out: MIC, Column B
Method: (§2) Compounds of the present invention were tested for activity against susceptible and resistant bacterial strains in vitro, and activity was compared to known anti-bacterial agents. Testing protocols followed NCCLS methodology for broth microdilution assays. MIC values in μg/mL are presented in Table 3 for the following strains: Column A: MSSA ATCC13709 (Smith); Column B: MSSA ATCC 29213; Column C: MRSA OC3726 (COL); Column D: MRSA OC2878.

[7] = tested on: MSSA ATCC13709 (Smith); assay: Resistant strains assay (broth microdilution MIC); format: cell-based; settings: Staphylococcus aureus
Method: as §2

[8] = tested on: CipR MRSA OC4159; assay: Resistant strains assay (broth microdilution MIC); format: cell-based; settings: Staphylococcus aureus, read-out: MIC, Column F
Text: (§3) Testing protocols followed NCCLS methodology for broth microdilution assays.

[9] = tested on: CipR MRSA OC4222; assay: Resistant strains assay (broth microdilution MIC); format: cell-based; settings: Staphylococcus aureus; CipR MRSA OC4222; read-out: MIC, Column G
Text: as §3

[10] = tested on: CipR MRSA OC5273; assay: Resistant strains assay (broth microdilution MIC); format: cell-based; settings: Staphylococcus aureus, read-out: MIC, Column H
Text: as §3

[11] = tested on: MRSA OC2878; assay: Resistant strains assay (broth microdilution MIC); format: cell-based; settings: Staphylococcus aureus; MRSA OC2878; read-out: MIC, Column D
Text: as §3

[12] = tested on: MRSA OC3726 (COL); assay: Resistant strains assay (broth microdilution MIC); format: cell-based; settings: Staphylococcus aureus; MRSA OC3726 (COL); read-out: MIC, Column C
Text: as §3

[13] = tested on: CipR MRSA OC3946; assay: Resistant strains assay (broth microdilution MIC); format: cell-based; settings: Staphylococcus aureus, read-out: MIC, Column E
Method: as §2
MIC values in μg/mL are presented in Table 4 for the following strains: Column E: CipR MRSA OC3946; Column F: CipR MRSA OC4159; Column G: CipR MRSA OC4222; Column H: CipR MRSA OC5273.

[14] = tested on: E. coli ATCC25922; assay: In vitro antibacterial activity (MIC assay), broth microdilution; format: cell-based; settings: Escherichia coli; obtained with E. coli ATCC25922; read-out: E. coli MIC, data marked (*)
Outline: as §1

T1 sequence (P0AES4 whole entry, one chain of several): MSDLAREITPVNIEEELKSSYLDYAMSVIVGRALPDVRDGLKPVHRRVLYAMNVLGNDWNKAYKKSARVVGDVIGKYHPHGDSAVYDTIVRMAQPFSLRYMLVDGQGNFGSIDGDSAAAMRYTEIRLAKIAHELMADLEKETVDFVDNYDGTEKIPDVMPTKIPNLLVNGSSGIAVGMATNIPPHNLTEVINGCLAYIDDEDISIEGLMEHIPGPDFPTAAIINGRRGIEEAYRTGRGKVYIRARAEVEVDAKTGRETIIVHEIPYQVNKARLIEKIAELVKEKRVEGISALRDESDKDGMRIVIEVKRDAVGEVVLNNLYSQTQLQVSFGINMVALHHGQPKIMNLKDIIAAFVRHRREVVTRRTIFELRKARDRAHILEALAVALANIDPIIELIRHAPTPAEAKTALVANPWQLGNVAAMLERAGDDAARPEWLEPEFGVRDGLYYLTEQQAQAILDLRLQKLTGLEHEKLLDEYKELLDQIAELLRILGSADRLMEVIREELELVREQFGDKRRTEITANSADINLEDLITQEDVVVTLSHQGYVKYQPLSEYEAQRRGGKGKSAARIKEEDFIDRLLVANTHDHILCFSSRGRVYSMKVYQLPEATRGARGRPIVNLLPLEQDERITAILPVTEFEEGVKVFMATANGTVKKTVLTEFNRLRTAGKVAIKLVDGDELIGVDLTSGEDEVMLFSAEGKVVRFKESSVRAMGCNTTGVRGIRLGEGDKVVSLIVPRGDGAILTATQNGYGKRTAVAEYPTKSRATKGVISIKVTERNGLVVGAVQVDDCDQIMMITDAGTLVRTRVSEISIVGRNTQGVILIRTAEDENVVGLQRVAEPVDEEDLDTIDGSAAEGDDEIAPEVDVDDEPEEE
T2 sequence (P0AFI2 whole entry): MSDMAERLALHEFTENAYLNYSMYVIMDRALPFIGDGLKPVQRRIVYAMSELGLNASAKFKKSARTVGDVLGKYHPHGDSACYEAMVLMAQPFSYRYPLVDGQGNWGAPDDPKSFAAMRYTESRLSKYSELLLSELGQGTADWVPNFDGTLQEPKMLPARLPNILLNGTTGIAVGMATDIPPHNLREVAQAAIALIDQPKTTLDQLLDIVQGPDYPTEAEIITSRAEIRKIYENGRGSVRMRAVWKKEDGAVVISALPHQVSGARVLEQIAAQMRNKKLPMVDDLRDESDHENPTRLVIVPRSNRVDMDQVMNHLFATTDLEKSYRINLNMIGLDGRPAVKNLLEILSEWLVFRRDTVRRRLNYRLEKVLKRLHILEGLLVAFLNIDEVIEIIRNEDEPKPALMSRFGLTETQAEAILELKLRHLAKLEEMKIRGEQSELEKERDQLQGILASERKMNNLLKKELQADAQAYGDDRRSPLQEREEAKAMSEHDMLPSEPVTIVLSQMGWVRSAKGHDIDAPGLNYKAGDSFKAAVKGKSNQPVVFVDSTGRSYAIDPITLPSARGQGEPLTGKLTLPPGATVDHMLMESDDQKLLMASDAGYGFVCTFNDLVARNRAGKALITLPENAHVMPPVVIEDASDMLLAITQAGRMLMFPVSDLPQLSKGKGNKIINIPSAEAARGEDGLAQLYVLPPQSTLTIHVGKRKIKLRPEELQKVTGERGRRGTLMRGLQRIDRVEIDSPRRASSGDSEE
T2 sequence (P20083 whole entry): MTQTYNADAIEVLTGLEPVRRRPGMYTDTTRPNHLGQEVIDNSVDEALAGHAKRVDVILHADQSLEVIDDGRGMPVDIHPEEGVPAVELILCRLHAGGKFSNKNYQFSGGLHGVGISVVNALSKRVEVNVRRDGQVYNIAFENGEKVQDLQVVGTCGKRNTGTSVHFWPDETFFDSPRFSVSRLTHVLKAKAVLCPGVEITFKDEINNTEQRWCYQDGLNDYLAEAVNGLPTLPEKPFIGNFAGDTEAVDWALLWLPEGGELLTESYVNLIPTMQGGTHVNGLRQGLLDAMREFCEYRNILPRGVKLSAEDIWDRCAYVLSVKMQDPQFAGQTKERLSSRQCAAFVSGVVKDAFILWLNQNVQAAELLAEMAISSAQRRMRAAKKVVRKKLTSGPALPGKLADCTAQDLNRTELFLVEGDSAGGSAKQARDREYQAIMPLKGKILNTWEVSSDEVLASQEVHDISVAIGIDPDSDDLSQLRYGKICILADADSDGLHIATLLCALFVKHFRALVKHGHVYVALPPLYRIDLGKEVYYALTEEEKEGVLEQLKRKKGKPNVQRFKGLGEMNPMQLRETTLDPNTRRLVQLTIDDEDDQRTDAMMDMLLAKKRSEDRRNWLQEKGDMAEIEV

SMILES | MIC [1] [µg/mL] | MIC [2] [µg/mL] | MIC [3] [µg/mL] | IC50 [4] [nM] | IC50 [5] [nM] | MIC [6] [µg/mL] | MIC [7] [µg/mL] | MIC [8] [µg/mL] | MIC [9] [µg/mL] | MIC [10] [µg/mL] | MIC [11] [µg/mL] | MIC [12] [µg/mL] | MIC ([13]; CipR MRSA OC3946) [µg/mL] | MIC ([13]; MRSA) [µg/mL] | MIC [14] [µg/mL]
COc1ccc2nccc(-n3cc4c(n3)CCC(NC(=O)c3ccc5c(c3)NC(=O)CS5)C4)c2n1 (stereo not drawn) [Example 4, 3-Oxo-3,4-dihydro-2H-benzo[1,4]thiazine-6-carboxylic acid [2-(6-methoxy-[1,5]naphthyridin-4-yl)-4,5,6,7-tetrahydro-2H-indazol-5-yl]-amide] | > 128 | 0.06 (≈ 0.123 µM) | 4 (≈ 8.22 µM) | 514 | 514 | 1 (≈ 2.06 µM) | 0.06 (≈ 0.123 µM) | 0.5 (≈ 1.03 µM) | 0.5 (≈ 1.03 µM) | 0.062 (≈ 0.127 µM) | 0.031 (≈ 0.0637 µM) | 0.062 (≈ 0.127 µM) | 0.007 (≈ 0.0144 µM) | – | –
O=C1CSc2ccc(C(=O)NC3CCc4nn(-c5cccc6cccnc56)cc4C3)cc2N1 (stereo not drawn) [Example 31, 3-Oxo-3,4-dihydro-2H-benzo[1,4]thiazine-6-carboxylic acid (2-quinolin-8-yl-4,5,6,7-tetrahydro-2H-indazol-5-yl)-amide] | 16 (≈ 35.1 µM) | 0.25 (≈ 0.549 µM) | 4 (≈ 8.78 µM) | 4390 | 274 | 16 (≈ 35.1 µM) | 0.25 (≈ 0.549 µM) | 4 (≈ 8.78 µM) | 4 (≈ 8.78 µM) | 0.5 (≈ 1.1 µM) | 0.25 (≈ 0.549 µM) | 0.5 (≈ 1.1 µM) | – | 0.125 (≈ 0.274 µM) | –
COc1ccc2nccc(-n3cc4c(n3)CCC(NC/C=C/c3ccccc3)C4)c2c1 (stereo not drawn) [Example 55, [2-(6-Methoxy-quinolin-4-yl)-4,5,6,7-tetrahydro-2H-indazol-5-yl]-(3-phenyl-allyl)-amine] | 64 (≈ 156 µM) | 0.5 (≈ 1.22 µM) | 1 (≈ 2.44 µM) | – | – | 2 (≈ 4.87 µM) | 0.5 (≈ 1.22 µM) | 0.5 (≈ 1.22 µM) | 0.25 (≈ 0.609 µM) | 1 (≈ 2.44 µM) | 0.5 (≈ 1.22 µM) | 1 (≈ 2.44 µM) | 0.5 (≈ 1.22 µM) | – | –
COc1ccc2nccc(-n3cc4c(n3)CCC(NC/C=C/c3ccccc3)C4)c2n1 (stereo not drawn) [Example 46, [2-(6-Methoxy-[1,5]naphthyridin-4-yl)-4,5,6,7-tetrahydro-2H-indazol-5-yl]-(3-phenyl-allyl)-amine] | 16 (≈ 38.9 µM) | 0.06 (≈ 0.146 µM) | < 0.125 | 292 | < 36.5 | 8 (≈ 19.4 µM) | 0.062 (≈ 0.151 µM) | 0.062 (≈ 0.151 µM) | 0.062 (≈ 0.151 µM) | 0.125 (≈ 0.304 µM) | 0.125 (≈ 0.304 µM) | 0.25 (≈ 0.608 µM) | 0.062 (≈ 0.151 µM) | – | –
COc1ccc2nccc(-n3cc4c(n3)CCC(NCc3cc5c(cc3F)SCCN5)C4)c2n1 (stereo not drawn) [Example 107, (7-Fluoro-3,4-dihydro-2H-benzo[1,4]thiazin-6-ylmethyl)-[2-(6-methoxy-[1,5]naphthyridin-4-yl)-4,5,6,7-tetrahydro-2H-indazol-5-yl]-amine] | – | 0.25 (≈ 0.525 µM) | 2 (≈ 4.2 µM) | – | – | – | – | – | 0.5 (≈ 1.05 µM) | – | – | – | – | – | 8 (≈ 16.8 µM)
